# Data taken from US11767305B2, “Advantageous benzofuran compositions for mental disorders or enhancement” (Tactogen Inc, priority 2020, dated 2023).
# Entries after “also recorded” stand apart in the source; their conditions may differ.
# Tests used:
# [1] = Solubility assessment in FaSSIF V2 media; settings: room temp, scale up samples of racemic 5-MAPB salts
# [2] = molecular target: Nicotinic Acetylcholine Receptor α4β2 (nAchRa4/b2) (Homo sapiens (Human), UniProt P17787+P43681); test: Nicotinic acetylcholine receptor α4β2 ion channel blocking assay; assay type: cell-based
# Sequence of Nicotinic Acetylcholine Receptor α4β2 (nAchRa4/b2) (P43681 29-627 limits assumed): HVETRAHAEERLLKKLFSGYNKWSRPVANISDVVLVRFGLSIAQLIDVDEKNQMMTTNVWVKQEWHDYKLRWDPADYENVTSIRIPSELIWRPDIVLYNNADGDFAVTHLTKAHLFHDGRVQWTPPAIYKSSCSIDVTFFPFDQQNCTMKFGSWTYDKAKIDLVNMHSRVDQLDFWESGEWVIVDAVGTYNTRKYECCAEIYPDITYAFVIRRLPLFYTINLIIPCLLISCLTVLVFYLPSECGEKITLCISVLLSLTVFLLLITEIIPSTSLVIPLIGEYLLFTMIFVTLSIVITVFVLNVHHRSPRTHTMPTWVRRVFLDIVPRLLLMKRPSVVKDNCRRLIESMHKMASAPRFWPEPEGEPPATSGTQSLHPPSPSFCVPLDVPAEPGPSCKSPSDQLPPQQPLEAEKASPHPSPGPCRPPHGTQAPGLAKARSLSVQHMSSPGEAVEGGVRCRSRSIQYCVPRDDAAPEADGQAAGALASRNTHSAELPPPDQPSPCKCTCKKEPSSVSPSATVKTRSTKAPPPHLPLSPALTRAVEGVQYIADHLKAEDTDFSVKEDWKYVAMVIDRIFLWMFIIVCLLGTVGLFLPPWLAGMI
# Sequence of Nicotinic Acetylcholine Receptor α4β2 (nAchRa4/b2) (P17787 26-502 limits assumed): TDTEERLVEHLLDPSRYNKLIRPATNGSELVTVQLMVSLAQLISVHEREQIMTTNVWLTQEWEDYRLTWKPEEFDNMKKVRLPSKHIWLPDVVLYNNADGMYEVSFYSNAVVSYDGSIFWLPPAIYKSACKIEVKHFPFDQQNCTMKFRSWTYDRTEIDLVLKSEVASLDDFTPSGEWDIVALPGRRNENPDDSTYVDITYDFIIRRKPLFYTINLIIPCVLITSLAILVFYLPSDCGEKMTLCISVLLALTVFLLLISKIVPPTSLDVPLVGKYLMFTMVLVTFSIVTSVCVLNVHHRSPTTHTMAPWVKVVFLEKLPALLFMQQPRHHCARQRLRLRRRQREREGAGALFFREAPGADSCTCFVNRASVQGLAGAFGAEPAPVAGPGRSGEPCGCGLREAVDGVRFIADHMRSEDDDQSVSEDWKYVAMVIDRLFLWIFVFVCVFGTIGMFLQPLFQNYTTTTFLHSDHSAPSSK
# Protocol: Cell lines were expanded from freezer stocks according to standard procedures. Cells were seeded in a total volume of 20 μL into black-walled, clear-bottom, Poly-D-lysine coated 384-well microplates and incubated at 37° C. for the appropriate time prior to testing.
# Assays were performed in 1×Dye Loading Buffer consisting of 1×Dye, and 2.5 mM freshly-prepared Probenecid when applicable.
# Test compounds were assayed at 10 concentrations with the highest concentration either 30 or 10 μM and subsequent concentrations using a 0.33 dilution factor.
# Prior to testing, cells were loaded with dye then incubated for 30-60 minutes at 37° C. For antagonist determination, cells were pre-incubated with sample. Dihydro-β-erythroidine was used as a positive control. Intermediate dilution of sample stocks was performed to generate 2-5×sample in assay buffer.
# After dye loading, cells were moved from the incubator and 10-25 μL 2-5×sample was added to cells in the presence of EC80 agonist when appropriate. Cells were incubated for 30 minutes at room temperature in the dark to equilibrate plate temperature. Vehicle concentration was 1%.
# Compound activity was measured on a FLIPRTetra(MDS) and analyzed using CBIS data analysis suite (ChemInnovation, CA). Percentage inhibition was calculated using the following formula: % Inhibition=100%×(1−(mean RLU of test sample−mean RLU of vehicle control)/(mean RLU of EC80 control−mean RLU of vehicle control)).
# [3] = molecular target: human 5-HT transporter (hSERT) (Homo sapiens (Human), UniProt P31645); test: Human serotonin transporter  assay ([3H]imipramine radioligand, CHO cells); assay type: binding; settings: IC50 (appeared close to), lowest concentration too high for accurate estimate
# Protocol: Benzofuran derivatives were evaluated for inhibiting the human 5-HT transporter (hSERT) as expressed in CHO cells using an antagonist radioligand assay (Tatsumi, M. et al. (1999), Eur. J Pharmacol., 368: 277-283). […] Test compounds were assayed in three trials at […], and 0.94868 μM.
# [4] = molecular target: T1, serotonin (5-HT) transporter (SERT) (Rattus norvegicus (Rat), UniProt P31652); test: Rat synaptosome SERT [3H]5-HT release assay; settings: [3H]5-HT release via SERT EC50 (nM), 5 nM [3H]5-HT
# [5] = molecular target: T1, serotonin (5-HT) transporter (SERT); test: Rat synaptosome SERT [3H]5-HT uptake inhibition assay; settings: Inhibition of [3H]5-HT Uptake at SERT IC50 (nM), 5 nM [3H]5-HT
# [6] = test system: Caco-2; test: In vitro absorption assay, Caco-2 permeability; assay type: in vitro ADME; settings: for Permeability (Papp, 10^-6 cm/s) A-B / Permeability (Papp, 10^-6 cm/s) B-A: 10 μM
# Protocol: (§1) The permeability of 10 μM RS-5-MAPB in Caco-2, MDCKII, and MDR1-MDCKII cell line assays was assessed (Table 6). Both the AB and BA directions with and without the addition of a Pgp-specific inhibitor (verapamil), a MRP1 inhibitor (MK571), and an ATP-binding cassette subfamily G member 2 (ABCG2/BCRP) inhibitor (KO143) were measured. Trials were repeated twice, and values averaged.
# [7] = test system: MDCKII; test: In vitro absorption assay, MDCKII permeability; assay type: in vitro ADME; settings: 10 μM, pH 7.4/7.4
# Protocol: as §1
# [8] = test system: MDR1-MDCKII; test: In vitro absorption assay, MDR1-MDCKII permeability; assay type: in vitro ADME; settings: 10 μM
# Protocol: as §1
# [9] = test system: healthy human individual; test: Human effects of non-racemic 5-MAPB, self-reported ratings (Good, Bad, Open); assay type: in vivo; settings: averaged from all sessions, 54 mg 5-MAPB HCl oral in two halves
# Protocol: The effects of non-racemic 5-MAPB HCl were tested by a healthy human individual at four different ratios of enantiomers plus the racemate as a control: • 54 mg S and 0 mg R (100% S) • 47 mg Sand 7 mg R (87% S) • 36 mg S and 18 mg R (67% S) • 27 mg S and 27 mg R (50% S) • 7 mg S and 47 mg R (13% S)
# Two trials were carried out at each ratio, except for 13% S where only one was conducted. Trials were at least 72 h apart.
# 5-MAPB HCl was dissolved in 1.5 ml distilled water and consumed in two halves, separated by 1 hour. Starting at 3 hours after administration, tablets of 250 mg ascorbic acid and capsules of 300 mg alpha lipoic acid were taken ad libitum (approximately every hour for a total of 4 administrations).
# Measurements were made approximately every 2 hours until post 6 hours and the maximum ratings per session were analyzed. Additionally, an index of good drug effects versus emotional openness, calculated as (Open−Good)/(200, the theoretical maximum of Open+Good), was constructed at each time point and the maximum analyzed. In healthy volunteers, Good Ratings can be considered a predictor of abuse liability. Accordingly, this index can be used as an indicator of the balance of a therapeutic effect (emotional openness) vs abuse liability.
# Historic data of two trials 50 mg RS-5-MAPB Cl from the same individual were also included in the analysis for comparison.
# [10] = molecular target: DAT (Homo sapiens (Human), UniProt Q01959); test: hDAT release assay in CHO cells ([3H]dopamine); settings: read-out: EC50 DAT (Mean ± SEM), CHO cells expressing hDAT
# [11] = molecular target: SERT (Homo sapiens (Human), UniProt P31645); test: hSERT release assay in CHO cells ([3H]serotonin); settings: read-out: EC50 SERT (Mean ± SEM), CHO cells expressing hSERT
compound,measurement,setting,value
CNC(C)Cc1ccc2occc2c1.O=C(O)/C=C\C(=O)O (stereo not drawn) [Pattern 10A],Solubility,[1],>10000 µg/mL
"CC[C@H](Cc1ccc2occc2c1)NC (stereo in doubt) [Compound R-5-MBPB, 1-(benzofuran-5-yl)-N-methylbutan-2-amine]",IC50,[2],6330 nM
same,IC50,[3],~949 nM
same,EC50,[4],49.5 ± 27.1 nM
same,IC50,[5],212 ± 36.2 nM
Br.CNC(C)Cc1ccc2occc2c1 (stereo not drawn) [Pattern 2B],Solubility,[1],>10000 µg/mL
CNC(C)Cc1ccc2occc2c1.Cl (stereo not drawn) [RS-5-MAPB],"Permeability (Papp, 10^-6 cm/s) A-B","[6]; Caco-2, pH 7.4/7.4",81 10^-6 cm/s
same,"Permeability (Papp, 10^-6 cm/s) B-A","[6]; Caco-2, pH 7.4/7.4",29.1 10^-6 cm/s
same,"Permeability (Papp, 10^-6 cm/s) A-B","[6]; Caco-2, pH 7.4/7.4 + KO143",75.3 10^-6 cm/s
same,"Permeability (Papp, 10^-6 cm/s) B-A","[6]; Caco-2, pH 7.4/7.4 + KO143",14 10^-6 cm/s
same,"Permeability (Papp, 10^-6 cm/s) A-B","[6]; Caco-2, pH 7.4/7.4 + verapamil",37.6 10^-6 cm/s
same,"Permeability (Papp, 10^-6 cm/s) B-A","[6]; Caco-2, pH 7.4/7.4 + verapamil",23 10^-6 cm/s
same,absorption and transport (conclusion from permeability assays),"[6]; Caco-2, MDCKII and MDR1-MDCKII",well absorbed; also recorded: actively transported through a mechanism that was inhibited by verapamil
same,"Permeability (Papp, 10^-6 cm/s) A-B",[7],82.1 10^-6 cm/s
same,"Permeability (Papp, 10^-6 cm/s) B-A",[7],19.8 10^-6 cm/s
same,"Permeability (Papp, 10^-6 cm/s) A-B",[8]; pH 7.4/7.4,68.7 10^-6 cm/s
same,"Permeability (Papp, 10^-6 cm/s) B-A",[8]; pH 7.4/7.4,20.5 10^-6 cm/s
same,"Permeability (Papp, 10^-6 cm/s) A-B",[8]; pH 7.4/7.4 + verapamil,42.8 10^-6 cm/s
same,"Permeability (Papp, 10^-6 cm/s) B-A",[8]; pH 7.4/7.4 + verapamil,30.4 10^-6 cm/s
same,Bad,[9]; maximum 0-100 rating of bad drug effects,10%
same,Open,[9]; maximum 0-100 rating of emotional openness,45%
same,Good,[9]; maximum 0-100 rating of good drug effects,50%
same,EC50,[10],459 ± 48 nM
same,EC50,[11],90 ± 16 nM
